Source: patent US10850135B2, “Antiseptic-tolerant lactic acid bacteria” (AB-BIOTICS, S.A., priority 2016, dated 2020)

Columns and labels:
Experiment in all cases: Tolerance to antiseptics, disc diffusion assay
L. brevis CD2 = assay type: cell-based, Lactobacillus brevis
Procedure: (§1) LAB strains with presumed probiotic properties namely L. brevis, P. acidilactici, P. pentosaceus, S. oralis and S. salivarius were seeded in agar plates with the appropriate nutrient media and incubated in order to obtain isolated colonies. Porphyromonas gingivalis DSM20709 was used as an example of pathogens associated with periodontal pathologies. For each strain the nutritive media and atmospheric conditions used were the most suitable for their proper growth as summarized in TABLE 1.
(§2) For each microorganism, isolated colonies were used for preparing a suspension in Phosphate Buffered Saline 0.1M (PBS) with an optical density equivalent to a Mc Farland standard No. 3. The suspension was used for obtaining a confluent layer of microorganism over the corresponding nutrient medium (TABLE 1) by uniformly seeding the microorganism using a sterile swab.
(§3) Immediately after the inoculation of the strains in the plates, 6 mm of cellulose discs were placed. The discs were impregnated with different conventional antiseptics according to TABLE 2:
(§4) The volume used was the maximum allowed by the disc without spreading on the medium. The solvent was confirmed to not be inhibitory against the bacteria at the amount used. Microorganism were allowed to grow according to the conditions of TABLE 1, and halos of inhibition (in millimeters) measured after 24 h or 48 h according to the corresponding optimal growth conditions for the microorganisms. Results were obtained in triplicate.

[1] = system: Pediococcus strains (P. acidilactici CECT8633, P. acidilactici AB134, P. pentosaceus CECT8330); assay type: cell-based, Pediococcus sp.; settings: for resistance compared with the other strains tested (disc diffusion): vs L. brevis, Streptococcus sp. and P. gingivalis
Procedure: as §1, §2, §3, §4

P. acidilactici CECT8633 = assay type: cell-based, Pediococcus acidilactici
Procedure: as §1, §2, §3, §4

P. acidilactici AB134 = assay type: cell-based, Pediococcus acidilactici; settings: 6 mm discs impregnated with chlorhexidine; concentration not given
Procedure: as §1, §2, §3, §4

[2] = system: Pediococcus pentosaceous CECT8330; assay type: cell-based, Pediococcus pentosaceus; settings: 6 mm discs impregnated with chlorhexidine; concentration not given
Procedure: as §1, §2, §3
The volume used was the maximum allowed by the disc without spreading on the medium. […] Microorganism were allowed to grow according to the conditions of TABLE 1, and halos of inhibition (in millimeters) measured after 24 h or 48 h according to the corresponding optimal growth conditions for the microorganisms. […]

[3] = system: Streptococcus sp. strains (S. oralis, S. salivarius K12); assay type: cell-based
Procedure: as §1, §2, §3, §4

[4] = system: Porphyromonas gingivalis DSM20709; assay type: cell-based
Procedure: as §1, §2, §3, §4

[5] = highest concentration tested 0.12%, v/v
[6] = 6 mm discs impregnated with chlorhexidine, concentration not given
[7] = any of the concentration tested (0.12%, 0.06%, 0.03%)
[8] = highest concentration tested 1.2 mg/mL, 5 uL per disc
[9] = triclosan at different concentrations (0.2%, 0.1%, 0.05%), 5 uL per disc

## NC(=NCCCCCCN=C(N)/N=C(\N)Nc1ccc(Cl)cc1)/N=C(\N)Nc1ccc(Cl)cc1 [chlorhexidine, (1E)-2-[6-[[amino-[(E)-[amino-(4-chloroanilino)methylidene]-amino]methylidene]amino]hexyl]-1-[amino-(4-chloroanilino)methylidene]guanidine]
L. brevis CD2; concentrations of 0.12% and 0.06%
  inhibition (halo, disc diffusion): inhibited
L. brevis CD2; [5]
  inhibition (halo, disc diffusion): all the strains were inhibited
[1]; [5]
  inhibition (halo, disc diffusion): all the strains were inhibited
[1]
  resistance compared with the other strains tested (disc diffusion): greatest resistance
P. acidilactici CECT8633; [6]
  inhibition halo: 3 mm
P. acidilactici AB134
  inhibition halo: 2 mm
[2]
  inhibition halo: 4 mm
[3]; [7]
  inhibition (halo, disc diffusion): inhibited at any of the concentration tested
[3]; [5]
  inhibition (halo, disc diffusion): all the strains were inhibited
[4]; [6]
  inhibition halo: 9 mm
[4]; [7]
  inhibition (halo, disc diffusion): inhibited at any of the concentration tested
[4]; [5]
  inhibition (halo, disc diffusion): all the strains were inhibited

## Cc1ccc(C(C)C)c(O)c1 [thymol, 2-isopropyl-5-methylphenol]
[3]; [8]
  growth inhibition (halo, disc diffusion): inhibited the growth
[4]; [8]
  growth inhibition (halo, disc diffusion): inhibited the growth

## Oc1cc(Cl)ccc1Oc1ccc(Cl)cc1Cl [triclosan, 5-Chloro-2-(2,4-dichlorophenoxy)phenol]
L. brevis CD2; [9]
  inhibition (halo, disc diffusion): neither Lactobacillus brevis nor the strains belonging to Pediococcus genus were inhibited
[1]; [9]
  inhibition (halo, disc diffusion): neither Lactobacillus brevis nor the strains belonging to Pediococcus genus were inhibited
[3]; [9]
  inhibition (halo, disc diffusion): inhibited
[4]; [9]
  inhibition (halo, disc diffusion): inhibited

## N=C(NCCCCCCNC(=N)NC(=N)Nc1ccc(Cl)cc1)NC(=N)Nc1ccc(Cl)cc1.O=C(O)[C@H](O)[C@@H](O)[C@H](O)[C@H](O)CO.O=C(O)[C@H](O)[C@@H](O)[C@H](O)[C@H](O)CO [chlorhexidine gluconate]
L. brevis CD2; [5]
  inhibition (halo, disc diffusion): all the strains were inhibited
[1]; [5]
  inhibition (halo, disc diffusion): all the strains were inhibited
[1]
  resistance compared with the other strains tested (disc diffusion): highest resistance
P. acidilactici CECT8633; chlorhexidine gluconate 0.12%, 20 μl per 6-mm disc (FIG. 7)
  inhibition halo compared with S. salivarius K12 and P. gingivalis: lower inhibition halo
[3]; [5]
  inhibition (halo, disc diffusion): all the strains were inhibited
[4]; [5]
  inhibition (halo, disc diffusion): all the strains were inhibited
